One assay deals with T1, human V-1 receptor (V1a) (Homo sapiens, UniProt P37288).
T1 construct: expressed in transfected cells; host or cells: HEK-293 (membranes)
Briefly: In vitro recombinant vasopressin receptor binding assay (3H-arginine vasopressin displacement), V1a. Conditions: 0.2 μM test compound, cloned human receptor membranes from HEK-293 cells; for inhibition at 0.2 µM: read-out: Binding V1a (% inhib @ 0.2 μM). The protocol: (§1) Compounds were assessed for their ability to displace ^3H-arginine vasopressin from the human V-1 or V-2 receptor in HEK-293 cells. Assay buffer is 50 mM Tris-Cl, 5 mM MgCl2, 0.1% BSA (pH 7.5) containing 5 ug/ml of aprotinin, leupeptin, pepstatin, 50 ug/ml bacitracin, and 1 mM Pefabloc. ^3H-vasopressin is ^3H-arginine-8-vasopressin (68.5 Ci/mmol, final concentration in assay is 0.65-0.75 nM). Into wells of 96-well round bottom polypropylene plates were added buffer, test compound, membrane (containing cloned human V-1 or V-2 receptor), and ^3H-vasopressin. The reaction plates were allowed to sit at room temperature for one hour. The samples were filtered through Unifilter GF/C plates (presoaked in 0.3 polyethyleneimine). The plates were washed 5 times with cold physiological saline containing 0.05% Tween 20. After drying, the bottom of the filter plates were sealed and 0.025 ml of Microscint-20 was added to each filter. The top of the plate was sealed, and the plate was counted. Non-specific binding was determined by the addition of 1.25 uM arginine-8-vasopressin in those wells.

For assay [1], the target named is T2, human V2 receptor (Homo sapiens, UniProt P30518).
T2 construct: expressed in transfected cells; host or cells: HEK-293
T2 sequence (P30518 whole entry): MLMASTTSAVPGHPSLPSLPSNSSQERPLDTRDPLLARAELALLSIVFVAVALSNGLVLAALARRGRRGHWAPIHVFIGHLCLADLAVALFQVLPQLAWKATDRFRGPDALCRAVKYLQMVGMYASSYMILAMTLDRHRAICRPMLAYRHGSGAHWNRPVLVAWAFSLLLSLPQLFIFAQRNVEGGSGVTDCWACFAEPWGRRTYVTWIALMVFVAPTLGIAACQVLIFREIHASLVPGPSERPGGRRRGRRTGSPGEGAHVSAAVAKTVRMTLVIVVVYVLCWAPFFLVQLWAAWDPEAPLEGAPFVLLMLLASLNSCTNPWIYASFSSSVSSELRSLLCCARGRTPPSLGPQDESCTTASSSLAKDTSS
The experiment in a line: In vitro recombinant vasopressin receptor binding assay (3H-arginine vasopressin displacement), V2. Conditions: for IC50: cloned human receptor membranes from HEK-293 cells. As for the experimental part: as §1

In assay [2] the target is T2, human V2 receptor. The experiment in a line: Inhibition of AVP-induced cAMP accumulation in transfected HEK-293 cells expressing human V2 receptor. It counts as cell-based. Conditions: AVP 1 nM, HEK-293 expressing human V2, read-out: Functional V2 (IC50; μM). The protocol:
HEK-293 cells were grown in DMEM media supplemented with 10% FBS and glutamine (Gibco BRL, Grand Island, N.Y.). Once transfected, the cells were passed biweekly by trypsinization and seeded into 96 well plates at 33,000 cells per well. HEK-293 were transfected with human V1a, V1b or V2 DNA using DMRIE-C reagent from Life Technologies, Inc., Grand Island, N.Y. Cells were tested for their responsiveness to vasopressin 48 h after transfection. Stable lines were generated by selecting cells grown in culture media containing geneticin (500 μg/mL, Life Technologies).
The accumulation of cAMP was measured in transfected HEK-293 expressing the human V2 receptor. The cells were cultured 4-7 d in 96-well plates. On the day of testing in this assay, cells were washed twice in assay media (DMEM/F12 containing 0.1% BSA). The cells were treated with the test compound for 5 min and then given AVP (1 nM) in assay media containing 1 mM isobutylmethylxanthine. After 5 min, 0.5 N HCl was added to disrupt the cells and solubilize cAMP. The cAMP content of 20 μL of the cell lysate in each well was measured using cAMP Flashplates (NEN Life Sciences). Data are expressed as pmol cAMP/well. While the assay is optimized to detect and quantitate antagonistic activity, agonistic activity would also be apparent at the higher concentrations of test compounds.
The data from the cAMP accumulation and the calcium mobilization assays are expressed as IC50 values as determined from dose response curves.
On the technique in general: Changes in cAMP serve as a functional read-out for many G protein-coupled receptors.

Where a name gives a salt, the structure may show the parent alone.

T1 sequence (P37288 whole entry): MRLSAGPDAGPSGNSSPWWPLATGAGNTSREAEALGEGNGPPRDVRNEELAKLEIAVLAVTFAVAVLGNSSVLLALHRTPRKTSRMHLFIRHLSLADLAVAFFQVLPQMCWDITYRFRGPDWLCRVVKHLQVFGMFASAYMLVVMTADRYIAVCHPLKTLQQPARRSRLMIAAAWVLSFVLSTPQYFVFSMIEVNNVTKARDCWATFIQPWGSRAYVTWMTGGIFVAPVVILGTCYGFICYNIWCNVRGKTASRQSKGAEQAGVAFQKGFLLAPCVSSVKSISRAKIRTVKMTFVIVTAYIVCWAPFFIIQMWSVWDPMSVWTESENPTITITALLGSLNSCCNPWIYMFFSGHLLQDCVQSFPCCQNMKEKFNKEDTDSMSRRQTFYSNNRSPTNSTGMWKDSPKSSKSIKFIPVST

The term IC50 denotes the concentration at which inhibition is half-maximal. With `O=C(Nc1ccc(C(=O)N2C[C@@H](CO)N(Cc3ccccc3)Cc3ccccc32)c(Cl)c1)c1ccccc1-c1ccccc1` [Cpd 1, (S)-Biphenyl-2-carboxylic acid [4-(4-benzyl-3-hydroxymethyl-2,3,4,5-tetrahydro-benzo[e][1,4]diazepine-1-carbonyl)-3-chloro-phenyl]-amide], on human V-1 receptor (V1a), the inhibition at 0.2 µM was 1%. The IC50 on human V2 receptor [1] is 0.5 µM.

In the case of `CSC[C@@H]1CN(C(=O)c2ccc(NC(=O)c3ccccc3-c3ccccc3)cc2Cl)c2ccccc2CN1C` [Cpd 2, (S)-Biphenyl-2-carboxylic acid [3-chloro-4-(4-methyl-3-methylsulfanylmethyl-2,3,4,5-tetrahydrobenzo[e][1,4]diazepine-1-carbonyl)-phenyl]-amide], at human V-1 receptor (V1a), the inhibition at 0.2 µM stood at 0%. The IC50 at human V2 receptor [1] amounted to 0.24 µM; on human V2 receptor [2], 0.28 µM.

Turning to `CN1Cc2ccccc2N(C(=O)c2ccc(NC(=O)c3ccccc3-c3ccccc3)cc2Cl)C[C@@H]1CN1CCCC1` [Cpd 3, (S)-Biphenyl-2-carboxylic acid [3-chloro-4-(4-methyl-3-pyrrolidin-1-ylmethyl-2,3,4,5-tetrahydrobenzo[e][1,4]diazepine-1-carbonyl)-phenyl]-amide ditrifluoroacetate], the inhibition at 0.2 µM at human V-1 receptor (V1a) was found to be 0%. Moreover, the IC50 at human V2 receptor [1] is 0.34 µM; on human V2 receptor [2], 0.71 µM.

For `CN1Cc2ccccc2N(C(=O)c2ccc(NC(=O)c3ccccc3-c3ccccc3)cc2Cl)C[C@H]1COC1CCCC1` [Cpd 4, (S)-Biphenyl-2-carboxylic acid [3-chloro-4-(3-cyclopentyloxymethyl-4-methyl-2,3,4,5-tetrahydrobenzo[e][1,4]diazepine-1-carbonyl)-phenyl]-amide trifluoroacetate], the inhibition at 0.2 µM was 0% on human V-1 receptor (V1a) and 22% at human V2 receptor [1] (read-out: Binding V2 (% inhib @ 0.2 μM)). In addition, the IC50 at human V2 receptor [2] is above 10 µM.

Turning to `COC[C@@H]1CN(C(=O)c2ccc(NC(=O)c3ccccc3-c3ccccc3)cc2Cl)c2ccccc2CN1C` [Cpd 6, (S)-Biphenyl-2-carboxylic acid [3-chloro-4-(3-methoxymethyl-4-methyl-2,3,4,5-tetrahydrobenzo[e][1,4]diazepine-1-carbonyl)-phenyl]-amide trifluoroacetate], the inhibition at 0.2 µM at human V-1 receptor (V1a) is 0%. Further, the IC50 stood at 0.066 µM on human V2 receptor [1] and 0.025 µM on human V2 receptor [2].

For the compound `CS(=O)(=O)N1Cc2ccccc2N(C(=O)c2ccc(NC(=O)c3ccccc3-c3ccccc3)cc2Cl)C[C@H]1CO` [Cpd 7, (S)-Biphenyl-2-carboxylic acid [3-chloro-4-(3-hydroxymethyl-4-methanesulfonyl-2,3,4,5-tetrahydrobenzo[e][1,4]diazepine-1-carbonyl)-phenyl]-amide], at human V-1 receptor (V1a), the inhibition at 0.2 µM was 4%. Besides, the values for the IC50 on human V2 receptor [1] and on human V2 receptor [2] were 0.05 µM and 0.02 µM, respectively.

In the case of `CS(=O)(=O)OC[C@@H]1CN(C(=O)c2ccc(NC(=O)c3ccccc3-c3ccccc3)cc2Cl)c2ccccc2CN1S(C)(=O)=O` [Cpd 8, (S)-methanesulfonic acid 1 {4-[(biphenyl-2-carbonyl)-amino]-2chloro-benzoyl}-4-methanesulfonyl-2,3,4,5-tetrahydro-1H-benzo[e][1,4]diazepin-3-ylmethyl ester], on human V-1 receptor (V1a), the inhibition at 0.2 µM came out at 0%. For the same compound, the figures for the IC50 on human V2 receptor [1] and at human V2 receptor [2] were 0.4 µM and 1.08 µM, respectively.

Consider `CC(=O)OC[C@@H]1CN(C(=O)c2ccc(NC(=O)c3ccccc3-c3ccccc3)cc2Cl)c2ccccc2CN1C(C)=O` [Cpd 9, (S)-Acetic acid 4-acetyl-1-{4-[(biphenyl-2-carbonyl)-amino]-2-chloro-benzoyl}-2,3,4,5-tetrahydro-1H-benzo[e][1,4]diazepin-3-ylmethyl ester], for which the inhibition at 0.2 µM at human V-1 receptor (V1a) was determined as 2%. Besides, the IC50 was determined as 0.045 µM at human V2 receptor [1] and 0.04 µM at human V2 receptor [2].

As to `CCCS(=O)(=O)N1Cc2ccccc2N(C(=O)c2ccc(NC(=O)c3ccccc3-c3ccccc3)cc2Cl)C[C@H]1CO` [Cpd 10, (S)-Biphenyl-2-carboxylic acid {3-chloro-4-[3-hydroxymethyl-4-(propane-1-sulfonyl)-2,3,4,5-tetrahydrobenzo[e][1,4]diazepine-1-carbonyl]-phenyl}-amide], the inhibition at 0.2 µM at human V-1 receptor (V1a) was found to be 2%. The IC50 on human V2 receptor [1] was determined as 0.065 µM; on human V2 receptor [2], 0.03 µM.

With `O=C(Nc1ccc(C(=O)N2C[C@@H](CO)N(S(=O)(=O)c3ccccc3)Cc3ccccc32)c(Cl)c1)c1ccccc1-c1ccccc1` [Cpd 11, (S)-Biphenyl-2-carboxylic acid [4-(4-benzenesulfonyl-3-hydroxymethyl-2,3,4,5-tetrahydrobenzo[e][1,4]diazepine-1-carbonyl)-3-chloro-phenyl]-amide], the inhibition at 0.2 µM on human V-1 receptor (V1a) came out at 0%. For the same compound, the IC50 was 0.23 µM at human V2 receptor [1] and 0.773 µM at human V2 receptor [2].

For `CC(=O)N1Cc2ccccc2N(C(=O)c2ccc(NC(=O)c3ccccc3-c3ccccc3)cc2Cl)C[C@H]1CO` [Cpd 12, (S)-Biphenyl-2-carboxylic acid [4-(4-acetyl-3-hydroxymethyl-2,3,4,5-tetrahydro-benzo[e][1,4]diazepine-1-carbonyl)-3-chloro-phenyl]-amide], the inhibition at 0.2 µM at human V-1 receptor (V1a) came out at 6%. The values for the IC50 at human V2 receptor [1] and at human V2 receptor [2] were 0.028 µM and 0.02 µM, respectively.

In the case of “(S)-Biphenyl-2-carboxylic acid [3-chloro-4-(4-methyl-3-morpholino-4-ylmethyl-2,3,4,5-tetrahydrobenzo[e][1,4]diazepine-1-carbonyl)-phenyl]-amide ditrifluoroacetate [Cpd 5]”, the “Binding V1a (% inhib @ 0.2 μM)” value at human V-1 receptor (V1a) is listed as 0%.

(Values after US7763605B2, “[1,4]benzodiazepines as vasopressin V2 receptor antagonists” (Janssen Pharmaceutica, N.V., priority 2004, dated 2010).)
